Results reported in patent publication US20240034743A9, “TRICYCLIC COMPOUNDS AS EGFR INHIBITORS” (QILU PHARMACEUTICAL CO., LTD., priority 2020, published 2024).
Where two headings read alike, the source gives them in different places.

Tests used:
EGFR WT (wild type EGFR) = EGFR WT (wild type EGFR) (Homo sapiens (Human), UniProt P00533); test: In vitro enzymatic TR-FRET (HTRF KinEASE-TK) kinase assay, EGFR WT; assay type: biochemical; conditions: kinase activity, TR-FRET; read-out: EGFR (WT) IC50
Protocol: (I) In Vitro Enzymatic Experiment for EGFR WT and EGFR L858R/T790M/C797S
In the assay, the inhibition effect of the compound on the kinase activity of EGFR WT (wild type EGFR) and EGFR L858R/T790M/C797S was tested by adopting a time-resolved fluorescence resonance energy transfer (TR-FRET) method, and half maximal inhibitory concentration IC50 of the compound on the kinase activity of EGFR was obtained.
EGFR recombinase and EGFR L858R/T790M/C797S recombinase, purchased from Signalchem.
HTRF KinEASE-TK kit, purchased from Cisbio.
DTT, MnCl2, and MgCl2, purchased from Sigma.
ATP, purchased from Promega.
(§1) Brigatinib, purchased from Selleck.
1) 1× working solution was prepared: 5 mM MgCl2; 1 mM DTT; 1 mM MnCl2 and 1× kinase buffer (in kit).
2) […] of gradiently-diluted compound was transferred to a 384-well plate using Echo 550 (Labcyte).
3) 5 μL of 2× EGFR WT or EGFR L858R/T790M/C797S recombinase solution was added to the 384-well plate, and the plate was incubated at room temperature for 10 min.
4) 5 μL of 2× TK-substrate-biotin substrate solution (containing ATP) was added to the 384-well plate, and the plate was incubated at room temperature for 40 min.
5) 5 μL of assay solution containing Sa-XL 665 HTRF and 5 μL of TK-antibody-Cryptatewas were added to the plate, and the plate was incubated at room temperature for 1 h.
6) The fluorescence signal values at 615 nm and 665 nm were measured for each well using an Envision microplate reader (PerkinElmer).
7) The ratio of fluorescence signal values at 665 nm and 615 nm was calculated for each well.
8) Data analysis was performed using GraphPad Prism software to give the IC50 for compounds.

A431 cells (EGFR WT) = test: A431 cell proliferation inhibition assay (CellTiter-Glo); assay type: cell-based; conditions: Homo sapiens
Protocol: A431 Cell Proliferation Inhibition Assay
In the assay, the inhibition effect of the compounds on the proliferation of A431 cells was tested by adopting a CellTiter-Glo method, and the concentration IC50 of the compound for inhibiting half maximal growth of cells was obtained.
A431 cells, purchased from ATCC.
DMEM medium, fetal bovine serum (FBS), and Penicillin-Streptomycin, purchased from GIBCO.
as §1
(§2) CellTiter-Glo reagent, purchased from Promega.
1) A431 cells were seeded in a 384-well plate at a density of 800 cells/well with 30 μL/well, and the plate was cultured in a cell incubator for 24 h (37° C., 5% CO2).
(§3) 2) Day 0: […] of gradiently-diluted compounds to be tested with a final concentration of DMSO of 0.1% was added to plate using Echo, and the plate was incubated in a cell incubator for 72 h (37° C., 5% CO2). […] of DMSO was added into each well in blank control group.
(§4) 3) Day 3: 30 μL Cell Titer-Glo reagent was added to each well, and the plate was in the dark under room temperature for 30 min.
(§5) 4) The chemiluminescent signal was detected by an Envision plate reader (PerkinElmer).
(§6) 5) Data analysis was performed using GraphPad Prism software to give the IC50 for compounds.

[1] = tested on: Ba/F3_Del19/T790M/C797S cells; test: Ba/F3_Del19/T790M/C797S cell proliferation inhibition assay (CellTiter-Glo); assay type: cell-based; conditions: Mus musculus
Protocol: Ba/F3_Del19/T790M/C797S Cell Proliferation Inhibition Assay
In the assay, the inhibition effect of the compounds on the proliferation of Ba/F3_Del19/T790M/C797S cells was tested by adopting a CellTiter-Glo method, and the concentration IC50 of the compound for inhibiting half maximal growth of cells was obtained.
Ba/F3_Del19/T790M/C797S, purchased from Kyinno Biotechnology Co., Ltd. 1640 medium, fetal bovine serum (FBS), Penicillin-Streptomyces, and GlutaMAX-I Supplement, purchased from GIBCO.
as §1, §2
1) Ba/F3_Del19/T790M/C797S cells were seeded in a 384-well plate at a density of 700 cells/well with 30 μL/well.
as §3, §4, §5
Data analysis was performed using GraphPad Prism 6 software to give the IC50 for compounds.

[2] = tested on: Ba/F3_L858R/T790M/C797S cells; test: Ba/F3_L858R/T790M/C797S cell proliferation inhibition assay (CellTiter-Glo); assay type: cell-based; conditions: Mus musculus
Protocol: Ba/F3_L858R/T790M/C797S Cell Proliferation Inhibition Assay
In the assay, the inhibition effect of the compounds on the proliferation of Ba/F3_L858R/T790M/C797S cells was tested by adopting a CellTiter-Glo method, and the concentration IC50 of the compound for inhibiting half maximal growth of cells was obtained.
Ba/F3_L858R/T790M/C797S cells were constructed by Pharmaron Beijing Co., Ltd.
1640 medium, fetal bovine serum (FBS), Penicillin-Streptomyces, and GlutaMAX-I Supplement, purchased from GIBCO.
as §1, §2
1) Ba/F3_L858R/T790M/C797S cells were seeded in a 384-well plate at a density of 700 cells/well with 30 μL/well.
as §3, §4, §5, §6

[3] = A-431, cell proliferation, 72 h, CellTiter-Glo, read-out: A431 EGFR WT IC50
[4] = BaF3, cell proliferation, 72 h, CellTiter-Glo, read-out: Ba/F3 (Del19/T790M/C797S) IC50
[5] = BaF3, cell proliferation, 72 h, CellTiter-Glo, read-out: Ba/F3 (L858R/T790M/C797S) IC50
[6] = A-431, 72 h, read-out: A431 EGFR WT IC50(nM)
[7] = BaF3, 72 h, read-out: Ba/F3 (Del19/T790M/C797S) IC50(nM)
[8] = BaF3, 72 h, read-out: Ba/F3 (L858R/T790M/C797S) IC50(nM)

EGFR WT (wild type EGFR), sequence (P00533 25-1210): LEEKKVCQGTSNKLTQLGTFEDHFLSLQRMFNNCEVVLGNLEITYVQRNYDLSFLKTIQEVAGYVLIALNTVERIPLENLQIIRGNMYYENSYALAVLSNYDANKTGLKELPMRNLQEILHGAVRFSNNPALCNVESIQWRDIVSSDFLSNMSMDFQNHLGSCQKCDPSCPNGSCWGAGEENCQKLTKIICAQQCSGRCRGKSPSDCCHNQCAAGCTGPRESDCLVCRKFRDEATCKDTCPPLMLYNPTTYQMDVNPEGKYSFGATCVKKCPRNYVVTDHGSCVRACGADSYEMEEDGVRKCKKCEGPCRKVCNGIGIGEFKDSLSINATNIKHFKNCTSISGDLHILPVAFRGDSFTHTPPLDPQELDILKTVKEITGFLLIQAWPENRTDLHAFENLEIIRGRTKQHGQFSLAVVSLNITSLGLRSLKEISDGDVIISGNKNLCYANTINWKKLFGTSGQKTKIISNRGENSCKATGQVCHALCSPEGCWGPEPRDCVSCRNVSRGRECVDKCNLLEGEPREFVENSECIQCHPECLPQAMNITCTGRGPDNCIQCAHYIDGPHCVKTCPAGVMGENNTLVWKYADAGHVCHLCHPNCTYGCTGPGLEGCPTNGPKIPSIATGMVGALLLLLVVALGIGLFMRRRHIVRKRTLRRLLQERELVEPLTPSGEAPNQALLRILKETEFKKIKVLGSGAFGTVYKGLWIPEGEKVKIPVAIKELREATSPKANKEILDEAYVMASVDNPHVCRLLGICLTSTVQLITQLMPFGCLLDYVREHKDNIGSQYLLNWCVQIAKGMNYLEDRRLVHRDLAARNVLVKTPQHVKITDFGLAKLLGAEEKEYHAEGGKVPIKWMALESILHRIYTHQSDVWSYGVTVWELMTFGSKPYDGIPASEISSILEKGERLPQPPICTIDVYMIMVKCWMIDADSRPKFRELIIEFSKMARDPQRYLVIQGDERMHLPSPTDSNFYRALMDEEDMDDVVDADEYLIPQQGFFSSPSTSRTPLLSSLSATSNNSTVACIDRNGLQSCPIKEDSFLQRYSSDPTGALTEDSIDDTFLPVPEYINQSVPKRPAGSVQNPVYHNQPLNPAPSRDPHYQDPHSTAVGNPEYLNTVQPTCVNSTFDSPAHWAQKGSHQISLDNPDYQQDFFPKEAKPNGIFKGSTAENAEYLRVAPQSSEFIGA

Row | SMILES | IC50 (EGFR WT (wild type EGFR)) [nM] | IC50 (A431 cells (EGFR WT); [3]) [nM] | IC50 [1, 4] [nM] | IC50 [2, 5] [nM] | IC50 (A431 cells (EGFR WT); [6]) [nM] | IC50 [1, 7] [nM] | IC50 [2, 8] [nM]
1 | COc1cc2c(cc1Nc1ncc(Br)c(Nc3ccc4nccnc4c3P(C)(C)=O)n1)-c1cnn(C)c1CN(C)C2=O [Compound 9] | 10 to 50 | 100 to 1000 | 10 to 50 | 10 to 50 |  |  | 
2 | COc1cc2c(cc1Nc1ncc(Br)c(Nc3ccc4nccnc4c3P(C)(C)=O)n1)-c1cnn(C)c1CN(C)C2 [Compound 11] | 1 to 10 | 100 to 1000 | < 10 | < 10 |  |  | 
3 | COc1cc2c(cc1Nc1ncc(Br)c(Nc3ccc4nccnc4c3P(C)(C)=O)n1)-c1cnn(C)c1CCN2CC1CC1 [Compound 12] | 1 to 10 | 100 to 1000 | < 10 | < 10 |  |  | 
4 | COc1cc2c(cc1Nc1ncc(Cl)c(Nc3ccccc3P(C)(C)=O)n1)-c1cnn(C)c1CCN2C [Compound 14] | 1 to 10 | 100 to 1000 | < 10 | < 10 |  |  | 
5 | COc1cc2c(cc1Nc1ncc(Br)c(Nc3ccc4nccnc4c3P(C)(C)=O)n1)-c1cnn(C)c1CCN2C(C)=O [Compound 15] | 10 to 50 | 100 to 1000 | < 10 | 10 to 50 |  |  | 
6 | COc1cc2c(cc1Nc1ncc(Br)c(Nc3ccc4nccnc4c3P(C)(C)=O)n1)-c1cnn(C)c1CCN2 [Compound 16] | 1 to 10 |  |  |  | 50 to 100 | < 10 | < 10
7 | CCN1CCc2c(cnn2C)-c2cc(Nc3ncc(C)c(Nc4ccccc4P(C)(C)=O)n3)c(OC)cc21 [Compound 19] | 1 to 10 | 100 to 1000 | < 10 | 10 to 50 |  |  | 
8 | CCN1CCc2c(cnn2C)-c2cc(Nc3ncc(Br)c(Nc4ccccc4P(C)(C)=O)n3)c(OC)cc21 [Compound 20] | 1 to 10 | 100 to 1000 | < 10 | < 10 |  |  | 
9 | COc1cc2c(cc1Nc1ncc(Br)c(Nc3ccc4nccnc4c3N(C)S(=O)(=O)C3CC3)n1)-c1cnn(C)c1CCN2C [Compound 21] | 1 to 10 | 100 to 1000 | < 10 | < 10 |  |  | 
10 | COc1cc2c(cc1Nc1ncc(Br)c(Nc3ccc4nccnc4c3P(C)(C)=O)n1)-c1cnn(C)c1CCC2O (centres unmarked) [Compound 24] | 1 to 10 | 100 to 1000 | < 10 | < 10 |  |  | 
11 | CCc1cnc(Nc2cc3c(cc2OC)N(C)CCc2c-3cnn2C)nc1Nc1ccccc1P(C)(C)=O [Compound 25] | 1 to 10 | 100 to 1000 | < 10 | 10 to 50 |  |  | 
12 | COc1cc2c(cc1Nc1ncc(C(F)(F)F)c(Nc3ccccc3P(C)(C)=O)n1)-c1cnn(C)c1CCN2C [Compound 26] | 10 to 50 | 100 to 1000 | < 10 | < 10 |  |  | 
13 | COc1cc2c(cc1Nc1ncc(Br)c(Nc3ccccc3P(C)(C)=O)n1)-c1cnn(C)c1CCN2 [Compound 28] | 1 to 10 |  |  |  | 100 to 1000 | < 10 | < 10
14 | COc1cc2c(cc1Nc1ncc(Br)c(Nc3ccccc3P(C)(C)=O)n1)-c1ccnn1CCN2C [Compound 29] | 10 to 50 | 100 to 1000 | 10 to 50 | 10 to 50 |  |  | 
15 | COc1cc2c(cc1Nc1ncc(Br)c(Nc3ccc4nccnc4c3P(C)(C)=O)n1)-c1cnn(C)c1CC(O)C2 (centres unmarked) [Compound 31] | 1 to 10 | 100 to 1000 | < 10 | 10 to 50 |  |  | 
16 | COc1cc2c(cc1Nc1ncc(Br)c(Nc3ccc4nccnc4c3P(C)(C)=O)n1)-c1cnn(C)c1CCO2 [Compound 33] | 1 to 10 | 50 to 100 | < 10 | < 10 |  |  | 
17 | COc1cc2c(cc1Nc1nc(Nc3ccccc3P(C)(C)=O)c3cc[nH]c3n1)-c1cnn(C)c1CCN2C [Compound 36] | 1 to 10 | 100 to 1000 | < 10 | < 10 |  |  | 
18 | COc1cc2c(cc1Nc1ncc(Br)c(Nc3ccccc3P(C)(C)=O)n1)-c1cn[nH]c1CCN2C [Compound 37] | 1 to 10 | 100 to 1000 | < 10 | 10 to 50 |  |  | 
19 | COc1cc2c(cc1Nc1ncc(Br)c(Nc3ccccc3P(C)(C)=O)n1)-c1cnn(C)c1CCC2 [Compound 38] | 10 to 50 | 100 to 1000 | 10 to 50 | 50 to 100 |  |  | 
20 | CCn1ncc2c1CCN(C)c1cc(OC)c(Nc3ncc(Br)c(Nc4ccccc4P(C)(C)=O)n3)cc1-2 [Compound 39] | 10 to 50 |  |  |  | 100 to 1000 | 10 to 50 | 10 to 50
21 | COc1cc2c(cc1Nc1ncc(Br)c(Nc3ccccc3P(C)(C)=O)n1)-c1cnn(C)c1CC=C2 [Compound 40] | 10 to 50 | 100 to 1000 | < 10 | 10 to 50 |  |  | 
22 | COc1cc2c(cc1Nc1ncc(Br)c(Nc3ccccc3P(C)(C)=O)n1)-c1cnn(C)c1CCN2CCN1CCC(F)CC1 [Compound 41] | 1 to 10 | 100 to 1000 | < 10 | < 10 |  |  | 
23 | COc1cc2c(cc1Nc1ncc(Br)c(Nc3ccccc3P(C)(C)=O)n1)-c1scnc1CCN2C [Compound 42] | 1 to 10 | 100 to 1000 | < 10 | < 10 |  |  | 
24 | COc1cc2c(cc1Nc1ncc(Br)c(Nc3ccc(F)cc3P(C)(C)=O)n1)-c1cnn(C)c1CCN2C [Compound 43] | 1 to 10 | 50 to 100 | < 10 | < 10 |  |  | 
25 | COc1cc2c(cc1Nc1ncc(Br)c(Nc3cccnc3P(C)(C)=O)n1)-c1cnn(C)c1CCN2C [Compound 44] | 1 to 10 | 100 to 1000 | < 10 | 10 to 50 |  |  | 
26 | COc1cc2c(cc1Nc1ncc(Br)c(Nc3ccccc3P(C)(C)=O)n1)-c1cnn(C)c1COC2 [Compound 46] | 10 to 50 | 100 to 1000 | 10 to 50 | 10 to 50 |  |  | 
27 | COc1cc2c(cc1Nc1ncc(Br)c(Nc3ccccc3P(C)(C)=O)n1)-c1cnn(C)c1CCN2C1CCN(C)CC1 [Compound 47] | 1 to 10 | 50 to 100 | < 10 | 10 to 50 |  |  | 
28 | COc1cc2c(cc1Nc1ncc(Br)c(Nc3ccccc3P(C)(C)=O)n1)-c1cnnn1CCN2C [Compound 48] | 10 to 50 | 100 to 1000 | < 10 | 10 to 50 |  |  | 
29 | COc1cc2c(cc1Nc1ncc(Br)c(Nc3ccccc3P(C)(C)=O)n1)-c1cnn(C)c1CNC2 [Compound 49] | 10 to 50 | 100 to 1000 | 10 to 50 | 10 to 50 |  |  | 
